In US5167824A, “Separation by carrier mediated transport” (priority 1990, dated 1992):
Like-named read-outs stand apart in the source and are kept apart here.

Tests used:
BABS = experiment: Radioimmunoassay, inhibition of 125I-digoxin binding to BABS by cardiac glycosides; set-up: species or system murine
Experimental: (§1) After the plates were washed and blocked with 1% horse serum in PBSA, solutions ([…]) containing 26-10 Fab or the BABS in either PBSA or 0.01 M sodium acetate at pH 5.5 were added to the wells and incubated 2-3 hrs at room temperature.

26-10 Fab = format: binding, murine
Experimental: as §1

[1] = tested on: biosynthetic protein (FB-sFv 26-10); experiment: Inhibition of 125I-dig-lysine binding by unlabelled cardiac glycosides; set-up: species or system murine; details: unlabelled glycoside; compared with parent 26-10 Fab
Description: Properties of the binding site were probed by a modification of an assay developed by Mudgett-Hunter et al. (J. Immunol. (1982) 129:1165-1172; Molec. Immunol. (1985) 22:477-488), so that it could be run on microtiter plates as a solid phase sandwich assay. Binding data were collected using goat anti-murine Fab antisera (gAmFab) as the primary antibody that initially coats the wells of the plate. These are polyclonal antisera which recognize epitopes that appear to reside mostly on framework regions.
These are polyclonal antisera which recognize epitopes that appear to reside mostly on framework regions.

[2] = organic solvents such as toluene; cited from earlier work
FB-sFv 26-10 = experiment: Oleandrin facilitated transport through supported liquid membrane containing FB-sFv 26-10; set-up: species or system murine
Description: (§2) A hollow fiber device was constructed using 100×17.8 cm PAN fibers, produced by Sepracor, Inc., Marlborough, Mass. Each PAN fiber is a tubular membrane having a wall thickness of 50 μm and an internal diameter of 205 μm. Thus, this device contains a geometric surface area of 115 cm^2 of PAN fiber. The associated fluid handling equipment comprised two peristaltic pumps, one for the shell loop and one for the luman loop, a pressure gauge on the shell loop for determining the pressure drop from the shell side to the lumen side, and a throttling valve for creating a positive pressure on the shell side.
The fluid loops were then drained. 100 mls of buffer containing 10.0 mgs of FB-sFv 26-10 produced as disclosed above were then slowly ultrafiltered from the shell loop at a pressure of 10 psi. […] After this time, no bulk fluid, either aqueous or organic, was present in either loop. […] Since an optical density of 1.0 at 280 nm indicates a protein concentration of 1.0 mg/ml, the filtrate contained 4.0 mgs protein. 6.0 mgs of FB-sFv 26-10 were therefore assumed to be contained in the supported liquid membrane.
Octanol saturated with buffer, but not containing oleandrin, was then convected through each loop, with the 10 psi pressure differential across the supported liquid membrane. Once uninterrupted convection through each loop was established, the shell loop reservoir was replaced with a reservoir containing 500 mls of octanol saturated with buffer, and containing 2.0 mg/ml oleandrin. The lumen reservoir was replaced with a reservoir containing 50 mls of buffer saturated octanol, containing no oleandrin. Over a 24 hour period, no convective flow of octanol through the supported liquid membrane occurred.
During this period, successive 1 ml samples of the lumen reservoir were taken. In order not to disturb the volume of the lumen reservoir, the octanol taken in each sample was replaced with 1 ml of buffer saturated octanol after drawing each sample. The quantity of oleandrin contained in each lumen reservoir sample was determined by HPLC.

[3] = Partition coefficient of oleandrin; format: physicochemical; details: 1-octanol and water; read-out: aqueous to organic coefficient S
[4] = Oleandrin transport through supported liquid membrane without binding protein; details: absence of binding protein
Description: as §2
The device was first washed with 1 L of water. This washing involved convecting water through the lumen, through the shell, and through the PAN fibers from shell-side to lumen.
Following the washing procedure, the liquid membrane was put in place. A buffer solution of the same composition as that in which the FB-sFv protein was dissolved (50 mM sodium chloride) was pumped through the fibers, from the shell-side to the lumen. Approximately 100 mls of buffer solution were convected through the fibers. […]
Oleandrin is a cardiac glycoside having a molecular weight of 576, and an organic to aqueous partition coefficient between 1-octanol and water of 338 (Cohnen et al, Drug Res. 28 (II), Heft 12, 1978). […] The quantity of oleandrin contained in each lumen reservoir sample was determined by HPLC.

[5] = 1-octanol and water; cited from earlier work
[6] = normalizing glycoside digoxigenin

SMILES | normalized concentration of inhibitor giving 50% inhibition of 125I-digoxin binding (BABS; [6]) | normalized concentration of inhibitor giving 50% inhibition of 125I-digoxin binding (BABS; normalizing glycoside digoxin) | normalized concentration of inhibitor giving 50% inhibition of 125I-digoxin binding (26-10 Fab; [6]) | normalized concentration of inhibitor giving 50% inhibition of 125I-digoxin binding (26-10 Fab; normalizing glycoside digoxin) | inhibition of binding of 125I-dig-lysine [1] | solubility in organic solvents [2] | initial flux of oleandrin (FB-sFv 26-10; BABS-containing membrane) | average flux of oleandrin (FB-sFv 26-10; BABS-containing membrane, 24-hour) | first order polynomial (slope) of change in oleandrin concentration (FB-sFv 26-10; presence of binding protein, time zero) [mg/mL/h] | initial increase of oleandrin flux (FB-sFv 26-10; with vs without 26-10 protein) [fold] | aqueous to organic partition coefficient [3] | first order polynomial (slope) of change in oleandrin concentration [4] [mg/mL/h] | organic to aqueous partition coefficient [5]
C[C@@H]1O[C@@H](O[C@H]2C[C@@H](O)[C@]3(CO)[C@H]4[C@H](O)C[C@]5(C)[C@@H](C6=CC(=O)OC6)CC[C@]5(O)[C@@H]4CC[C@]3(O)C2)[C@H](O)[C@H](O)[C@H]1O [Ouabain, ouabain] | 21 | 150 | 13 | 15 | can be inhibited | – | – | – | – | – | – | – | –
CC(=O)OC1CCC2(C=O)C3CCC4(C)C(C5=CC(=O)OC5)CCC4(O)C3CCC2(O)C1 (centres unmarked) [Acetyl Strophanthidin, acetyl strophanthidin] | 0.8 | 5.9 | 1.1 | 1.3 | can be inhibited | – | – | – | – | – | – | – | –
C[C@H]1O[C@@H](O[C@H]2[C@@H](O)C[C@H](O[C@H]3[C@@H](O)C[C@H](O[C@H]4CC[C@@]5(C)[C@H](CC[C@@H]6[C@@H]5CC[C@]5(C)[C@@H](C7=CC(=O)OC7)[C@@H](O)C[C@]65O)C4)O[C@@H]3C)O[C@@H]2C)C[C@H](O)[C@@H]1O [Gitoxin, gitoxin] | 8.5 | 62 | 8.1 | 9.6 | can be inhibited | – | – | – | – | – | – | – | –
C[C@]12CC[C@H](O)C[C@H]1CC[C@@H]1[C@@H]2CC[C@]2(C)[C@@H](C3=CC(=O)OC3)CC[C@]12O [Digitoxigenin, digitoxigenin] | 0.4 | 2.6 | 0.9 | 1.0 | can be inhibited | – | – | – | – | – | – | – | –
C[C@]12CC[C@H](O)C[C@H]1CC[C@@H]1[C@@H]2C[C@@H](O)[C@]2(C)[C@@H](C3=CC(=O)OC3)CC[C@]12O [Digoxigenin, digoxigenin] | 1.0 | 7.3 | 1.0 | 1.2 | can be inhibited | – | – | – | – | – | – | – | –
C[C@H]1O[C@@H](O[C@H]2[C@@H](O)C[C@H](O[C@H]3[C@@H](O)C[C@H](O[C@H]4CC[C@@]5(C)[C@H](CC[C@@H]6[C@@H]5CC[C@]5(C)[C@@H](C7=CC(=O)OC7)CC[C@]65O)C4)O[C@@H]3C)O[C@@H]2C)C[C@H](O)[C@@H]1O [Digitoxin, digitoxin] | 0.3 | 2.0 | 0.8 | 0.9 | can be inhibited | – | – | – | – | – | – | – | –
CCOC(=O)C(C)c1ccc2cc(OC)ccc2c1 (racemic) [racemic ethyl ester of naproxen, ethyl ester of naproxen] | – | – | – | – | – | to the extent of moles per liter | – | – | – | – | – | – | –
C[C@H]1O[C@@H](O[C@H]2[C@@H](O)C[C@H](O[C@H]3[C@@H](O)C[C@H](O[C@H]4CC[C@@]5(C)[C@H](CC[C@@H]6[C@@H]5C[C@@H](O)[C@]5(C)[C@@H](C7=CC(=O)OC7)CC[C@]65O)C4)O[C@@H]3C)O[C@@H]2C)C[C@H](O)[C@@H]1O [Digoxin, digoxin] | 0.1 | 1.0 | 0.9 | 1.0 | can be inhibited | – | – | – | – | – | – | – | –
CO[C@H]1C[C@H](O[C@H]2CC[C@@]3(C)[C@H](CC[C@@H]4[C@@H]3CC[C@]3(C)[C@@H](C5=CC(=O)OC5)[C@@H](OC(C)=O)C[C@]43O)C2)O[C@@H](C)[C@@H]1O [Oleandrin, oleandrin] | – | – | – | – | can be inhibited | – | 4.9×10^-12 gmole/sec-cm^2 | 2.9×10^-12 gmole/sec-cm^2 | 0.0215 | 9.3 | ~0.003 | 0.0023 | 338
